Assay results published in PMC5071873, “The Effects of Puerarin on Rat Ventricular Myocytes and the Potential Mechanism” (Scientific Reports, 2016).

Biological target: T1, IKs (Rattus norvegicus, UniProt Q9Z0N7)
T1 construct: endogenous in cells; host or cells: isolated adult rat ventricular myocytes
Assay: Whole-cell recording of IKs on rat ventricular myocytes
Format: cell-based
Conditions: puerarin 100 μM
Procedure: The Tyrode’s solution contained (mM): 126 NaCl, 5.4 KCl, 1.8 CaCl2, 1 MgCl2, 0.33 NaH2PO4, 10 HEPES and 10 glucose, pH 7.4 (adjusted with NaOH). The Ca^2+-free Tyrode’s solution was prepared by removing CaCl2 from the Tyrode’s solution. The Kreb’s solution used for cell storage contained (mM): 70 glutamic acid, 30 KCl, 15 taurine, 0.5 MgCl2, 10 KH2PO4, 0.5 EGTA, 10 HEPES, 10 glucose, and 1% albumin, pH 7.4 (adjusted with KOH). The enzyme solution used for the rat cardiomyocyte isolation contained 0.08 g/L collagenase (type II) and 1.0 g/L BSA in Kreb’s solution. For action potential recording on cardiomyocyte, the pipette solution contained (mM): 100 potassium aspartate, 30 KCl, 1 MgCl2, 5 Mg-ATP, 5 EGTA, 5 HEPES, pH 7.3 (adjusted with KOH); the Tyrode’s solution was used as the standard bath solution. For whole-cell recording of IKs on myocytes, the pipette solution contained (mM): 125 potassium aspartate, 20 KCl, 1 MgCl2, 5 Mg-ATP, 10 EGTA, 5 HEPES, pH 7.3 (adjusted with KOH); the bath solution contained (mM): 132 NaCl, 4 KCl, 1.8 CaCl2, 1.2 MgCl2, 10 HEPES, 5 glucose, pH 7.4 (adjusted with NaOH). […]
Cell suspensions were transferred into a chamber on the stage of a Nikon Eclipse Ti inverted microscope (Tokyo, Japan). […] The IK1 was calculated as the difference between the peak inward current and the holding current level. […]

SMILES: O=c1c(-c2ccc(O)cc2)coc2c([C@@H]3O[C@H](CO)[C@@H](O)[C@H](O)[C@H]3O)c(O)ccc12 [Puerarin, 8-c-glucoside of daidzein]
- effect on forskolin-activated IKs current in rat cardiac myocytes: antagonized such activation effect
